Assay results: ChEMBL document CHEMBL1150231, “New sesquiterpene carbonimidic dichlorides and related compounds from the sponge Stylotella aurantium” (J Nat Prod, 2001)

Legend:
Format in all cases: functional, cell-based
[1] = tested on: A549; test: Cytotoxicity against human A549 cells
[2] = tested on: SK-MEL-28; test: Cytotoxicity against human SK-MEL-28 cells
[3] = tested on: P388; test: Cytotoxicity against mouse P388 cells
[4] = tested on: HT-29; test: Cytotoxicity against human HT-29 cells

Measured: IC50

C=C(CC[C@@H]1C(=C)CC[C@H](Cl)C1(C)C)C(Cl)CN=C(Cl)Cl (some centres not stated)
0.1 µg/mL: [1] | [2] | [3] | [4]

CC1(C)[C@@H](Cl)[C@@H](O)C[C@]2(C)C/C(=C/C=O)CC[C@@H]12
0.1 µg/mL: [1] | [2] | [3] | [4]

CC1(C)[C@@H](Cl)[C@@H](O)C[C@]2(C)C/C(=C\C=O)CC[C@@H]12
0.1 µg/mL: [1] | [2] | [3] | [4]
